This is an account of results in patent publication US9416125B2, “Substituted cycloalkenopyrazoles as BUB1 inhibitors for the treatment of cancer” (BAYER PHARMA AKTIENGESELLSCHAFT, priority 2012, dated 2016).

SMILES strings stand for the structures. Some results are limits rather than exact numbers.

The target in experiment [1] is T1, catalytic domain of human Bub1 (amino acids 704-1085) (Homo sapiens, UniProt O43683).
T1 construct: catalytic domain of human Bub1 (amino acids 704-1085); His6 (N); made in house; host or cells: Hi5 insect cells
T1 sequence (O43683 704-1085): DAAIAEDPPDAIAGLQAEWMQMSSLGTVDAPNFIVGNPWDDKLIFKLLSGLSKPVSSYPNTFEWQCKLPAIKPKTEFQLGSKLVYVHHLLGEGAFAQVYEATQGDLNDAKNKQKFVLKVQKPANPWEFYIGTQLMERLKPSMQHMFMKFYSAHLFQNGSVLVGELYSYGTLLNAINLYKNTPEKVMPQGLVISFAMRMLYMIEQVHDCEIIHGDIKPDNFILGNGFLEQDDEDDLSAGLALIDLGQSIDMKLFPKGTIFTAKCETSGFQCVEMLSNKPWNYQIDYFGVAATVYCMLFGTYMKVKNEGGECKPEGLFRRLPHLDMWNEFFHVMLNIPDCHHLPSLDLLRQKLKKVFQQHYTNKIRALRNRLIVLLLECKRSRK
Briefly: Bub1 kinase assay (TR-FRET). The class given is biochemical. Particulars: 10 μM ATP, 1 μM peptide substrate, median, read-out: Biological Assay 1: Bub1 kinase assay median IC50. An excerpt:
Bub1-inhibitory activities of compounds described in the present invention were quantified using a time-resolved fluorescence energy transfer (TR-FRET) kinase assay which measures phosphorylation of the synthetic peptide Biotin-Ahx-VLLPKKSFAEPG (C-terminus in amide form), purchased from e.g. Biosyntan (Berlin, Germany) by the (recombinant) catalytic domain of human Bub1 (amino acids 704-1085), expressed in Hi5 insect cells with an N-terminal His6-tag and purified by affinity- (Ni-NTA) and size exclusion chromatography.
In a typical assay 11 different concentrations of each compound (0.1 nM, 0.33 nM, 1.1 nM, 3.8 nM, 13 nM, 44 nM, 0.15 μM, 0.51 μM, 1.7 μM, 5.9 μM and 20 μM) were tested in duplicate within the same microtiter plate. To this end, 100-fold concentrated compound solutions (in DMSO) were previously prepared by serial dilution (1:3.4) of 2 mM stocks in a clear low volume 384-well source microtiter plate (Greiner Bio-One, Frickenhausen, Germany), from which 50 nL of compounds were transferred into a black low volume test microtiter plate from the same supplier. Subsequently, 2 μL of Bub1 (the final concentration of Bub1 was adjusted depending on the activity of the enzyme lot in order to be within the linear dynamic range of the assay: typically ˜200 ng/mL were used) in aqueous assay buffer [50 mM Tris/HCl pH 7.5, 10 mM magnesium chloride (MgCl2), 200 mM potassium chloride (KCl), 1.0 mM dithiothreitol (DTT), 0.1 mM sodium ortho-vanadate, 1% (v/v) glycerol, 0.01% (w/v) bovine serum albumine (BSA), 0.005% (v/v) Trition X-100 (Sigma), 1× Complete EDTA-free protease inhibitor mixture (Roche)] were added to the compounds in the test plate and the mixture was incubated for 15 min at 22° C. to allow pre-equilibration of the putative enzyme-inhibitor complexes before the start of the kinase reaction, which was initiated by the addition of 3 μL 1.67-fold concentrated solution (in assay buffer) of adenosine-tri-phosphate (ATP, 10 μM final concentration) and peptide substrate (1 μM final concentration). The resulting mixture (5 μL final volume) was incubated at 22° C. during 60 min, and the reaction was stopped by the addition of 5 μL of an aqueous EDTA-solution (50 mM EDTA, in 100 mM HEPES pH 7.5 and 0.2% (w/v) bovine serum albumin) which also contained the TR-FRET detection reagents (0.2 μM streptavidin-XL665 [Cisbio Bioassays, Codolet, France] and 1 nM anti-phosho-Serine antibody [Merck Millipore, cat. #35-001] and 0.4 nM LANCE EU-W1024 labeled anti-mouse IgG antibody [Perkin-Elmer, product no. AD0077, alternatively a Terbium-cryptate-labeled anti-mouse IgG antibody from Cisbio Bioassays can be used]). The stopped reaction mixture was further incubated 1 h at 22° C. in order to allow the formation of complexes between peptides and detection reagents. Subsequently, the amount of product was evaluated by measurement of the resonance energy transfer from the Eu-chelate-antibody complex recognizing the Phosphoserine residue to the streptavidin-XL665 bound to the biotin moiety of the peptide. To this end, the fluorescence emissions at 620 nm and 665 nm after excitation at 330-350 nm were measured in GTR-FRET plate reader, e.g. a Rubystar or Pherastar (both from BMG Labtechnologies, Offenburg, Germany) or a Viewlux (Perkin-Elmer) and the ratio of the emissions (665 nm/622 nm) was taken as indicator for the amount of phosphorylated substrate. The data were normalised using two sets of (typically 32-) control wells for high- (=enzyme reaction without inhibitor=0%=Minimum inhibition) and low- (=all assay components without enzyme=100%=Maximum inhibition) Bub1 activity. IC50 values were calculated by fitting the normalized inhibition data to a 4-parameter logistic equation (Minimum, Maximum, IC50, Hill; Y=Max+(Min−Max)/(1+(X/IC50)Hill)).
A general note: TR-FRET usually uses a lanthanide donor and a delayed reading to cut background.

Another experiment deals with HeLa cell line. Briefly: Proliferation assay (crystal violet staining). The settings on record: Homo sapiens, 96 h, 4 days incubation, range 0.001-10 μM, median, read-out: Biological Assay 2: Proliferation assay (HeLa cell line) median IC50. The class given is cell-based. The protocol:
Cultivated tumor cells (cells were ordered from ATCC, except HeLa-MaTu and HeLa-MaTu-ADR, which were ordered from EPO-GmbH, Berlin) were plated at a density of 1000 to 5000 cells/well, depending on the growth rate of the respective cell line, in a 96-well multititer plate in 200 μL of their respective growth medium supplemented 10% fetal calf serum. After 24 h, the cells of one plate (zero-point plate) were stained with crystal violet (see below), while the medium of the other plates was replaced by fresh culture medium (200 μL), to which the test substances were added in various concentrations (0 μM, as well as in the range of 0.001-10 μM; the final concentration of the solvent DMSO was 0.5%). The cells were incubated for 4 days in the presence of test substances. Cell proliferation was determined by staining the cells with crystal violet: the cells were fixed by adding 20 μL/measuring point of an 11% glutaric aldehyde solution for 15 min at rt. After three washing cycles of the fixed cells with water, the plates were dried at rt. The cells were stained by adding 100 μL/measuring point of a 0.1% crystal violet solution (pH 3.0). After three washing cycles of the stained cells with water, the plates were dried at rt. The dye was dissolved by adding 100 μL/measuring point of a 10% acetic acid solution. Absorbtion was determined by photometry at a wavelength of 595 nm. The change of cell number, in percent, was calculated by normalization of the measured values to the aborbtion values of the zero-point plate (=0%) and the absorbtion of the untreated (0 μm) cells (=100%). The IC50 values were determined by means of a 4 parameter fit.

Turning to `CCOc1cc(F)c(Cn2nc(-c3ncc(OC)c(Nc4ccncc4)n3)c3c2CCC3)c(F)c1` [Example 2-1-1, 2-[1-(4-ethoxy-2,6-difluorobenzyl)-1,4,5,6-tetrahydrocyclopenta-[c]pyrazol-3-yl]-5-methoxy-N-(pyridin-4-yl)pyrimidin-4-amine], the IC50 worked out at 5 nM in experiment [1] and 6000 nM with HeLa cell line. For `COc1cnc(-c2nn(Cc3ccccc3F)c3c2CCCC3)nc1Nc1ccncc1` [Example 2-1-2, 2-[1-(2-fluoro-benzyl)-4,5,6,7-tetrahydro-1H-indazol-3-yl]-5-methoxy-N-(pyridin-4-yl)pyrimidin-4-amine] the same measures were 10 nM and not below 10000 nM. For `COc1ccc(Cn2nc(-c3ncc(OC)c(Nc4ccncc4)n3)c3c2CCC3)cc1` [Example 2-1-3, 5-methoxy-2-[1-(4-methoxy-benzyl)-1,4,5,6-tetrahydrocyclopenta [c]pyrazol-3-yl]-N-(pyridin-4-yl)pyrimidin-4-amine] the same measures were 50 nM and not below 10000 nM. The corresponding values for `COc1c(N)nc(-c2nn(Cc3ccccc3F)c3c2CCC3)nc1Nc1ccncc1` [Example 2-1-4, 2-[1-(2-fluoro-benzyl)-1,4,5,6-tetrahydrocyclopenta [c]pyrazol-3-yl]-5-methoxy-N-(pyridin-4-yl)pyrimidin-4,6-diamine] are 90 nM and not below 10000 nM. Turning to `Nc1nc(-c2nn(Cc3ccccc3F)c3c2CCC3)nc(Nc2ccncc2)c1N1CCOCC1` [Example 2-1-5, 2-[1-(2-fluoro-benzyl)-1,4,5,6-tetrahydrocyclopenta [c]pyrazol-3-yl]-5-(morpholin-4-yl)-N-(pyridin-4-yl)pyrimidin-4,6-diamine], the IC50 in experiment [1] amounted to 100 nM. `COc1cnc(-c2nn(Cc3ccccc3F)c3c2CCC3)nc1Nc1ccncc1` [Example 2-1-6, 2-[1-(2-fluoro-benzyl)-1,4,5,6-tetrahydrocyclopenta [c]pyrazol-3-yl]-5-methoxy-N-(pyridin-4-yl)pyrimidin-4-amine]: the IC50 in experiment [1] was 100 nM; in the experiment with HeLa cell line it was not below 10000 nM. The corresponding values for `COc1cnc(-c2nn(Cc3ccccc3F)c3c2CCC3)nc1Nc1ccncc1C#N` [Example 2-1-7, 4-({2-[1-(2-fluoro-benzyl)-1,4,5,6-tetrahydrocyclopenta [c]pyrazol-3-yl]-5-methoxy-pyrimidin-4-yl}amino) nicotinonitrile] are 200 nM and not below 10000 nM. In the case of `Fc1ccccc1Cn1nc(-c2nc(Nc3ccncc3)c(N3CCOCC3)c(Nc3ccncc3)n2)c2c1CCC2` [Example 2-1-8, 2-[1-(2-fluoro-benzyl)-1,4,5,6-tetrahydrocyclopenta[c]pyrazol-3-yl]-5-(morpholin-4-yl)-N,N′-di(pyridin-4-yl)pyrimidin-4,6-diamine], the IC50 in experiment [1] was 3000 nM.

For the compound `COCC(=O)Nc1nc(-c2nn(Cc3ccccc3F)c3c2CCC3)nc(Nc2ccncc2)c1OC` [Example 2-1-10, N-{2-[1-(2-fluorobenzyl)-1,4,5,6-tetrahydrocyclopenta[c]pyrazol-3-yl]-5-methoxy-6-(pyridin-4-ylamino)pyrimidin-4-yl}-2-methoxyacetamide], the values for the IC50 (in experiment [1]; with HeLa cell line) were 300 nM and not below 10000 nM, respectively. With `COc1c(NC(C)=O)nc(-c2nn(Cc3ccccc3F)c3c2CCC3)nc1Nc1ccncc1` [Example 2-1-11, N-{2-[1-(2-fluoro-benzyl)-1,4,5,6-tetrahydrocyclopenta [c]pyrazol-3-yl]-5-methoxy-6-(pyridin-4-ylamino)pyrimidin-4-yl}acetamide], the IC50 in experiment [1] worked out at 120 nM. Consider `NC(=O)c1cnccc1Nc1nc(-c2nn(Cc3ccccc3F)c3c2CCC3)ncc1O` [Example 2-1-12, 4-({2-[1-(2-fluoro-benzyl)-1,4,5,6-tetrahydrocyclopenta [c]pyrazol-3-yl]-5-hydroxy-pyrimidin-4-yl}amino) nicotinamide], for which the IC50 in experiment [1] was 200 nM; in the experiment with HeLa cell line, not below 10000 nM. Regarding `Oc1cnc(-c2nn(Cc3ccccc3F)c3c2CCC3)nc1Nc1ccncc1` [Example 2-1-13, 2-[1-(2-fluoro-benzyl)-1,4,5,6-tetrahydrocyclopenta [c]pyrazol-3-yl]-4-(pyridin-4-ylamino) pyrimidin-5-ol], the IC50 in experiment [1] is 300 nM; in the experiment on HeLa cell line, not below 10000 nM. As to `CCOc1cc(F)c(Cn2nc(-c3ncc(O)c(Nc4ccncc4)n3)c3c2CCC3)c(F)c1` [Example 2-2-1, 2-[1-(4-ethoxy-2,6-difluorobenzyl)-1,4,5,6-tetrahydrocyclopenta-[c]pyrazol-3-yl]-4-(pyridin-4-ylamino)pyrimidin-5-ol], the IC50 in experiment [1] was 20 nM; in the experiment on HeLa cell line it was not below 10000 nM. On to `CCOc1cc(F)c(Cn2nc(-c3ncc(OCCO[Si](C)(C)C(C)(C)C)c(Nc4ccncc4)n3)c3c2CCC3)c(F)c1` [Example 2-3-6, 5-(2-{[tert-butyl (dimethyl)silyl]oxy}ethoxy)-2-[1-(4-ethoxy-2,6-difluoro-benzyl)-1,4,5,6-tetrahydrocyclopenta [c]pyrazol-3-yl]-N-(pyridin-4-yl)pyrimidin-4-amine], for which the IC50 in experiment [1] stood at 100 nM. The same measure, in the same setting: as for `CSCCOc1cnc(-c2nn(Cc3ccccc3F)c3c2CCC3)nc1Nc1ccncc1C(N)=O` [Example 2-3-8, 4-({2-[1-(2-fluoro-benzyl)-1,4,5,6-tetrahydrocyclopenta [c]pyrazol-3-yl]-5-[2-(methyl-sulfanyl)ethoxy]pyrimidin-4-yl}amino) nicotinamide], the figure is 20 nM.

As to `CCOC(=O)c1cnccc1Nc1nc(-c2nn(Cc3ccccc3F)c3c2CCC3)ncc1Oc1ccncc1C(=O)OCC` [Example 2-9-1, ethyl 4-[(4-{[3-(ethoxycarbonyl)pyridin-4-yl]amino}-2-[1-(2-fluorobenzyl)-1,4,5,6-tetrahydrocyclopenta[c]pyrazol-3-yl]pyrimidin-5-yl)oxy]nicotinate], the IC50 in experiment [1] came to 500 nM. The same measure, in the same setting: as for `COCC(=O)N(c1ccncc1)c1nc(-c2nn(Cc3ccccc3F)c3c2CCC3)nc(N)c1OC` [Example 2-12-1, N-{6-amino-2-[1-(2-fluorobenzyl)-1,4,5,6-tetrahydrocyclopenta[c]-pyrazol-3-yl]-5-methoxypyrimidin-4-yl}-2-methoxy-N-(pyridin-4-yl)acetamide], the figure is 6000 nM.
